Data taken from patent US20140341857A1, “COMBINATION OF ONCOLYTIC AD[…] HISTONE DEACETYLASE INHIBITORS” (INSTITUT GUSTAVE ROUSSY, priority 2011, published 2014).

Experiments:
HCT116 = experiment: MTT assay, growth inhibition by HDACi after 48 h; type: cell-based
Experimental: (§1) HT29, HCT116, SW480, SW620 colon adenocarcinomas cell lines, 911 human embryonic retinal cell lines and HEK293, a human embryonic kidney cell line expressing the adenoviral E1 protein were purchased from ATCC (American Tissue Culture Collection, Manassas, Va., USA).
HCT116 were cultured, in Mc Coy's 5A mediums with 10% heat-inactivated-FBS.
(§2) First, three different histone deacetylase inhibitors: Trichostatin A (TSA), an hydroxamic acid; Valproic Acid (VPA), a short-chain aliphatic acid, and sodium butyrate (Nabu), a short-chain aliphatic acid, were evaluated for their ability to induce inhibition of the growth of these cells after 48 h of treatment using an MTT assay.

HT29 = experiment: MTT assay, growth inhibition by HDACi after 48 h; type: cell-based
From the text: as §1
HT29 and 911 were maintained in Dulbecco's modified Eagle's medium (DMEM; GIBCO) supplemented with 10% heat-inactivated fetal bovine serum (FBS; GIBCO).
as §2

SW620 = experiment: MTT assay, growth inhibition by HDACi after 48 h; type: cell-based
Experimental: as §1
(§3) The same medium was used for SW480 and SW620 supplemented with 1 mM Sodium Pyruvate (Invitrogen/GIBCO)
as §2

SW480 = experiment: MTT assay, growth inhibition by HDACi after 48 h; type: cell-based; details: SW480, 48 h of treatment
Experimental: as §1, §3, §2

viral hexon protein = experiment: Immunohistochemistry of viral hexon protein in HT29 tumor xenografts; type: in vivo, mice; details: tumors excised at day 10, VPA 300 mg/kg
Experimental: The effects of VPA on CRAd replication were also tested in vivo in HT29 tumor xenografts of mice injected with PBS, Δ24 CRAd, or VPA (300 mg/kg)+CRAd as described in Example 2 above. Tumors were excised at day 10, and expression of viral hexon protein was evaluated by immunohistochemistry. Tumors were fixed in FineFix (from IGR) paraffin-embedded, and cut into 4-μm-thick sections. Hematoxylin-eosin-safranin staining was performed on all of the xenografts for analysis of morphology. The polyclonal anti-adenovirus hexon protein antibody AB 1056 (CHEMICON INTERNATIONAL, Temecula, Calif.), diluted 1:300, was detected by a biotinylated rabbit antigoat immunoglobulin antibody streptavidin-horseradish peroxidase conjugate (DAKO), and the chromogen diaminobenzidine. Slides were counterstained with hematoxylin.

p21 = p21 expression, Western blot; type: cell-based; details: HCT116, VPA IC25 and IC50, 24, 48, 72 h
Experimental: Colon cancer cells HT29 or HCT116 (5·10^5) in MW6 were treated with Δ24 CRAd (MOI 15.6 vp/cell), with or without VPA (IC25 and IC50). At 24, 48, and 72 h p.i., tumor cells were harvested and protein extracts were prepared in RIPA buffer (10 mM Tris base pH 8.8, NaCl 150 mM, EDTA 1 mM, NP-40 1%, deoxycholic acid 1%) supplemented with mini EDTA proteases (ROCHE LABORATORY). Proteins (25 μg) were run into a NuPage (INVITROGEN, France), transferred onto a nitrocellulose membrane, and probed with anti-p21/Waf1 mouse monoclonal antibody (EA10, CALBIOCHEM) and anti-actin antibody (AC-15, SIGMA-ALDRICH), followed by HRP-conjugated secondary antibody. p21 expression was quantified by IMAGE-J software and expressed as arbitrary units relative to untreated cells.

γH2AX [1] = experiment: γH2AX expression, confocal microscopy in HT29 cells; type: cell-based; details: HT29, 3 days, CRAd MOI 15.6, VPA IC25/IC50
Experimental: HT29 cells were seeded at 5·10^5 cells/well on 6-well plates and cultured overnight. Cells were treated with Δ24 CRAd (MOI 15.6 vp/cell), VPA (IC25, IC50) or both (CRAd+VPA), or with the non-replicative adenovirus AE18 during 72 h. Then non-adherent tumor cells and adherent tumor cells were detached with TrypLE™ Express (1X) (INVITROGEN) cytospined on slides (500 rpm, 5 min), washed with PBS and fixed with 4% paraformaldehyde for 30 min. After permeabilization with 0.5% Triton X-100 for 10 min, samples were blocked with 3% BSA for 30 min. Samples were exposed to primary antibodies (1:1,000 anti-γH2AX, for 1-2 h in PBS/BSA) followed by Alexa Fluor-conjugated secondary antibody staining for 1 h. When filamentous actin was also stained, tetramethyl-rhodamine B isothiocyanate-labeled phalloidin (SIGMA) was added with the secondary antibody incubation. Cells were washed four times with PBS after secondary antibody staining and then mounted on glass slides by using mounting medium with DAPI (VECTASHIELD; Vector Laboratories). All images were obtained by using the ZEISS LSM 510 confocal microscope.

Δ24 CRAd = experiment: CRAd production in HT29 cells, plaque assay on 911 cells; type: cell-based; details: HT29, CRAd MOI 15.6, VPA IC25 and IC50, 3 days
Experimental: Colon cancer HT29 cells (5·10^5) in 6-well plates were infected with Δ24 CRAd (MOI 15.6 vp/cell) alone or in combination with VPA (IC50 and IC25) in adequate medium with 2% FBS. After 1 h, 3 ml of growth medium with or without VPA was added. Then, cells were scrapped and cells and medium were harvested at different times post-infection (from day 1 to day 6). After submission of cells and medium to freeze-thaw cycles, the amount of infectious particles was determined by plaque assay on 911 cells and expressed as plaque forming unit (pfu)/ml.
In a second series of experimentations, HT29 cells (5·10^5 cells/well) in 6-well plates were infected with CRAd (MOI 15.6 vp/cell) with or without VPA (IC50 and IC25) in adequate medium supplemented with 2% FBS. After 1 h, 3 ml of growth medium with or without VPA was added. After 3 days, cells and medium were independently harvested and lysed by freeze-thaw cycles. Then, the amount of infectious particles was measured by plaque assay on 911 cells, and expressed as pfu/ml.

HT29 cells [2] = experiment: LDH release cell death assay; type: cell-based; details: HT29, day 3, CRAd MOI 15.6 or VPA IC25/IC50 alone
From the text: Colon carcinoma HT29 cells were untreated or treated with CRAd (MOI 15.6 vp/cell), VPA (IC25 or IC50) or both. After 3 days, cell death was quantified by determination of Lactate deshydrogenase (LDH) release in cell supernatant, using Tox Cytotoxicity Assay kit (TOX7, Sigma Aldrich, France). The results were expressed relative to total LDH level obtained with cells treated with identical conditions and permeabilized with triton 0.1%. The results (Mean+SD) are shown on FIG. 7. They are representative of two experiments.

[3] = test system: E1A and fiber adenoviral proteins; experiment: Western blot of early (E1A) and late (fiber) adenoviral proteins in HT29 cells; type: cell-based
Experimental: For determining viral protein expression, HT29 cells (5·10^5) in MW6 medium were treated with Δ24 CRAd (MOI 15.6 vp/cell), with or without VPA. At different time points p.i. (24 h, 48 h, and 72 h), tumor cells were harvested and protein extracts were prepared in RIPA buffer (10 mM Tris base pH 8.8, NaCl 150 mM, EDTA 1 mM, NP-40 1%, deoxycholic acid 1%) supplemented with mini EDTA proteases (Roche laboratory). In order to quantify the expression of early (E1A) and late (fiber) adenoviral proteins, proteins (25 μg) were run into a NuPage (Invitrogen, France), transferred onto a nitrocellulose membrane, and probed with anti-fiber antibody (AB4 clone 4D2, THERMOSCIENTIFIC), anti-E1A antibody (sc-430, Santa Cruz), or (as a control) anti-actin antibody (Clone AC-15, SIGMA-ALDRICH) followed by HRP-conjugated secondary antibody.

HT29 cells [4] = experiment: MTT cell survival after oncolytic adenovirus with or without HDACi; type: cell-based; details: HT29, 3 days p.i., co-treatment with VPA and AE18
Experimental: Then the cells were treated with one of these HDACis (at concentrations in the range of IC50/2 and IC50) and transduced with the oncolytic adenovirus Δ24, at increasing multiplicity of infection (MOI). The survival of the cells at day 3 p.i. was evaluated using the MTT assay.
Colon carcinoma cells (HT29, HCT116, SW480, SW620) were plated in quadruplicates on 96-well plates (10^4 cells/well) and were treated with different MOI of Δ24 CRAd (ranging from 0 to 1000 vp/cell), VPA (0, IC25 or IC50) or a combination of CRAd and VPA. After 3 days, cell viability was measured with MTT assay and the results (means+SD) were expressed relative to non-infected cells treated with different VPA doses (0, IC25 and IC50). The results are representative of three experiments.
Colon carcinoma cells (HT29, HCT116) were treated in quadruplicates with Δ24 CRAd (MOI 15.6 vp/cell) without or with VPA (IC25 or IC50) and cell viability was measured at different time points thereafter using a MTT assay. The results (means+SD) were expressed relative to untreated or VPA (0, IC25 and IC50)-treated cells at the same time point. […] They are representative of two experiments.
The effects of a co-treatment with the oncolytic adenovirus Δ24 and the histone deacetylase inhibitor VPA on the survival of HT29 cells 3 days p.i. were compared with those of a co-treatment with VPA and the recombinant adenovirus AE18. […]

HT29 cells [5] = experiment: Cell size and nucleus morphology, Giemsa staining; type: cell-based; details: HT29, 72 h, CRAd MOI 15.6, VPA IC25/IC50
Experimental: HT29 cells in 6-well plates (5·10^5 cells/well) were untreated or treated with Δ24 CRAd (MOI 15.6 vp/cell), VPA (IC25, IC50) or both. After 72 h, cells were harvested, cytospined on slides, fixed with Wright and stained for 15 minutes in Giemsa solution. After washing, dry slides were mounted with a coverslip. Cells and nuclei observations were performed using phase-contrast microscopy.

γH2AX [6] = experiment: γH2AX expression, Western blot; type: cell-based; details: CRAd MOI 15.6, VPA 10mM (the IC50 of HT29; cell line and time not given)
Experimental: Colon carcinoma HT29 and HCT116 cells (5·10^5) in MW6 were treated with Δ24 CRAd (MOI 15.6 vp/cell), with or without VPA (IC25 and IC50). At indicated time points p.i., the cells were harvested and protein extracts were prepared in RIPA buffer (10 mM Tris base pH 8.8, NaCl 150 mM, EDTA 1mM, NP-40 1%, deoxycholic acid 1%) supplemented with mini EDTA proteases (ROCHE LABORATORY). Protein extracts were sonicated and centrifuged. Then, protein extracts (25 μg) were run into a NuPage (INVITROGEN, France), transferred onto a nitrocellulose membrane, and probed with anti-phospho-H2AX (Ser139) antibody (clone JBW301, MILLIPORE) or anti-actin antibodies (AC-15, SIGMA-ALDRICH) followed by HRP-conjugated secondary antibody. γH2AX was quantified by IMAGE-J software and expressed as arbitrary units relative to untreated cells.

HT29 tumor xenografts = experiment: HT29 tumor xenograft growth in nude mice; type: in vivo, athymic NU/NU female mice
Experimental: HT29 cells (10^7 cells) in 100 μl PBS were injected subcutaneously into the right flank of athymic NU/NU female mice housed at the Institut Gustave Roussy.
First, the sensitivity of tumor xenografts to VPA treatment was evaluated. When tumors reached 70-100 mm^3, mice were injected intraperitoneally with VPA (200 mg/kg or 300 mg/kg) or PBS in a volume of 200 μl five consecutive days per week. Tumor volume was evaluated twice a week for 4 weeks by measuring with calipers.
In a second series of experimentation, when tumors reached 70-100 mm^3, mice were first injected subcutaneously with Δ24 CRAd, or with a non-replicative adenovirus (AdCO1, deleted of region E1) or with PBS three consecutive days and every 7 days for 4 weeks. In parallel and beginning at day 4, mice received intraperitoneal injection of VPA (300 mg/kg) or PBS in a volume of 200 μl five consecutive days per week until the end of the protocol. Tumor growth was measured twice a week for 4 weeks.

[7] = Homo sapiens, HCT-116, HCT116, 48 h of treatment
[8] = Homo sapiens, HT-29, HT29, 48 h of treatment
[9] = Homo sapiens, SW-620, SW620, 48 h of treatment

## CCCC(=O)[O-].[Na+] [Nabu, sodium butyrate]
HCT116; [7]
  IC50: 1000 µM
HT29; [8]
  IC50: 4000 µM
SW620; [9]
  IC50: 3000 µM
SW480; Homo sapiens
  IC50: 7000 µM

## CC(/C=C/C(=O)NO)=C\[C@@H](C)C(=O)c1ccc(N(C)C)cc1 [TSA, Trichostatin A]
HCT116; HCT116, 48 h of treatment
  IC50: 0.035 µM
HT29; HT29, 48 h of treatment
  IC50: 0.15 µM
SW620; SW620, 48 h of treatment
  IC50: 0.037 µM
SW480
  IC50: 0.075 µM

## CCCC(CCC)C(=O)O [VPA, Valproic Acid]
Viral hexon protein
  amount of hexon protein in the tumor: decreased
HCT116; [7]
  IC50: 1200 µM
p21
  increase in p21 expression compared to untreated cells: up to 6 fold
γH2AX [1]
  γH2AX expression (confocal microscopy): much less than CRAd
Δ24 CRAd
  viral content in cell-associated and extracellular fractions: reduction of viral content
HT29 cells [2]
  LDH release compared to untreated cells: increase in LDH release
HT29; [8]
  IC50: 10000 µM
[3]; HT29, CRAd MOI 15.6, 24 h, 48 h, 72 h
  E1A expression: did not modify E1A expression
[3]; HT29, CRAd MOI 15.6, day 1
  expression of the fiber protein: strongly diminished
[3]; HT29, CRAd MOI 15.6, day 2 and 3
  expression of the fiber protein: minor effect
HT29 cells [4]
  effect of VPA on the cytotoxicity of the recombinant adenovirus AE18: no effect
SW620; [9]
  IC50: 5000 µM
SW480; Homo sapiens
  IC50: 10000 µM
HT29 cells [5]
  cell size and nucleus morphology: increase in cell size and cell nuclei with well-defined shape
γH2AX [6]
  level of γH2AX relative to untreated cells: 5.6 fold
HT29 tumor xenografts; VPA 200 mg/kg intraperitoneally, five consecutive days per week, 4 weeks
  kinetic of tumor growth vs PBS: No difference
HT29 tumor xenografts; VPA 300 mg/kg intraperitoneally, five consecutive days per week, 4 weeks
  tumor growth vs PBS: significant delay in tumor growth
HT29 tumor xenografts; VPA 300 mg/kg intraperitoneally, mice
  toxicity: did not trigger significant toxicity
HT29 tumor xenografts; second series: virus subcutaneously three consecutive days every 7 days, VPA 300 mg/kg i.p. from day 4, 4 weeks
  tumor growth compared to PBS-injected mice: reduction of tumor growth
